Laboratory results taken from ChEMBL document CHEMBL1127265, “Synthesis of a novel ring contracted artemisinin derivative” (1994).

organism: Mus musculus; test: Blood schizonticidal activity in mice model with Plasmodium berghei k-173 infection was determined; format: functional

First: CC1OC2OC3(C)CCC4[C@H](C)CCC([C@H]1C)[C@@]24OO3.O (single isomer, unassigned)
Second: CCO[C@H]1O[C@@H]2O[C@@]3(C)CC[C@H]4[C@H](C)CC[C@@H]([C@H]1C)[C@@]24OO3 [ARTEMOTIL]
The ED90 of the first is 8-fold higher: 10 mg/kg for the first, 1.25 mg/kg for the second.

Compared with C[C@@H]1CCC2[C@@H](C)[C@H](OC[C@@]3(C)OC4OC5(C)CCC6[C@H](C)CCC3[C@@]46OO5)OC3OC4(C)CCC1[C@]32OO4 (single isomer, unassigned), C[C@@H]1CCC2[C@@H](C)[C@@H](OC[C@]3(C)OC4OC5(C)CCC6[C@@H](C)CCC3[C@]46OO5)OC3OC4(C)CCC1[C@]32OO4 (single isomer, unassigned) is 2-fold lower in ED90: 2.5 mg/kg for the first, 1.25 mg/kg for the second.

C[C@@H]1CCC2[C@]34OOC(C)(CCC13)O[C@H]4O[C@]2(C)CO (single isomer, unassigned) and C[C@@H]1CCC2[C@]34OOC(C)(CCC13)O[C@H]4O[C@]2(C)C=O (single isomer, unassigned) are the same in ED90: 25 mg/kg for the first, 25 mg/kg for the second.
